Measured values from PubChem BioAssay (NCI).
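Protocol summary: plate cells (96-well), add compound at 5 concentrations, incubate 48 h, interpolate endpoints linearly. TGI marks complete inhibition of growth.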

How the values were obtained:
Assay in all cases: NCI tumour cell line growth inhibition, 48 h
[1] = tested on: HS 578T breast
[2] = tested on: UACC-62 melanoma
[3] = tested on: 786-0 renal
[4] = tested on: SNB-75 CNS
[5] = tested on: HOP-92 NSCLC
[6] = tested on: OVCAR-8 ovarian
[7] = tested on: K-562 leukemia
[8] = tested on: T-47D breast
[9] = tested on: SF-268 CNS
[10] = tested on: RPMI-8226 leukemia
[11] = tested on: A498 renal
[12] = tested on: MDA-N
[13] = tested on: PC-3 prostate
[14] = tested on: UO-31 renal
[15] = tested on: SK-MEL-5 melanoma
[16] = tested on: ACHN renal
[17] = tested on: NCI-H23 lung
[18] = tested on: BT-549 breast
[19] = tested on: M14 melanoma
[20] = tested on: NCI-H460 lung
[21] = tested on: HL-60(TB) leukemia
[22] = tested on: HOP-62 NSCLC
[23] = tested on: SNB-19 CNS
[24] = tested on: A549 NSCLC
[25] = tested on: HCT-116 colon
[26] = tested on: HT29 colon
[27] = tested on: OVCAR-5 ovarian
[28] = tested on: SK-MEL-28 melanoma
[29] = tested on: TK-10 renal
[30] = tested on: SF-539 CNS
[31] = tested on: IGROV1 ovarian
[32] = tested on: NCI-H522 lung
[33] = tested on: SK-MEL-2 melanoma
[34] = tested on: MDA-MB-231 breast
[35] = tested on: MDA-MB-435
[36] = tested on: LOX IMVI melanoma
[37] = tested on: NCI/ADR-RES ovarian
[38] = tested on: SK-OV-3 ovarian
[39] = tested on: HCT-15 colon
[40] = tested on: KM12 colon
[41] = tested on: CCRF-CEM leukemia
[42] = tested on: EKVX NSCLC
[43] = tested on: SW-620 colon
[44] = tested on: U251 CNS
[45] = tested on: MCF7 breast
[46] = tested on: NCI-H226 lung
[47] = tested on: DU-145 prostate
[48] = tested on: COLO 205 colon
[49] = tested on: SF-295 CNS
[50] = tested on: CAKI-1 renal
[51] = tested on: SN12C renal
[52] = tested on: MALME-3M melanoma
[53] = tested on: OVCAR-4 ovarian
[54] = tested on: RXF 393 renal
[55] = tested on: UACC-257 melanoma
[56] = tested on: OVCAR-3 ovarian
[57] = tested on: HCC-2998 colon
[58] = tested on: SR leukemia
[59] = tested on: MOLT-4 leukemia

In the case of `CC/C=C/C(/C=C/C[C@]1(CC)C[C@H](CC)[C@H](CC(=O)O)OO1)CC` (stereo partly drawn), the TGI [1] is reported as 4.85 µM, the TGI [2] is reported as 12.1 µM and the TGI [3] is reported as 3.32 µM. For the same compound, the TGI [4] was 15.4 µM, the TGI [5] was 4.72 µM and the TGI [6] was 13.1 µM. The TGI [7] was over 29.8 µM, the TGI [8] was over 23.1 µM and the TGI [9] was 9.57 µM. The TGI [10] was 4.43 µM, the TGI [11] was 28.9 µM and the TGI [12] was 3.71 µM. The TGI [13] was 3.69 µM, the TGI [14] was 0.947 µM and the TGI [15] was 10.1 µM. It also gave a TGI [16] of 3.61 µM, a TGI [17] of 6.04 µM and a TGI [18] of 18.3 µM. It also gave a TGI [19] of 26.5 µM, a TGI [20] of 4.25 µM and a TGI [21] of 4.76 µM. The TGI [22] was 3.5 µM, the TGI [23] was 12 µM and the TGI [24] was 3.99 µM. For the same compound, the TGI [25] was 6.81 µM, the TGI [26] was 3.98 µM and the TGI [27] was 7.61 µM. It also gave a TGI [28] of 7.41 µM, a TGI [29] of 3.69 µM and a TGI [30] of 4.07 µM. The TGI [31] was 0.899 µM, the TGI [32] was 3.44 µM and the TGI [33] was 9.11 µM. The TGI [34] was 14.3 µM, the TGI [35] was 4.46 µM and the TGI [36] was 1.76 µM. It also gave a TGI [37] of 4.79 µM, a TGI [38] of 19.2 µM and a TGI [39] of 8.97 µM. The TGI [40] was 3.68 µM, the TGI [41] was 1.95 µM and the TGI [42] was 3.77 µM. For the same compound, the TGI [43] was 5.1 µM, the TGI [44] was 3.36 µM and the TGI [45] was 6.62 µM. For the same compound, the TGI [46] was 57.9 µM, the TGI [47] was 4.36 µM and the TGI [48] was 3.86 µM. The TGI [49] was 5.02 µM, the TGI [50] was 4.82 µM and the TGI [51] was 14.7 µM. The TGI [52] was 29.3 µM, the TGI [53] was 3 µM and the TGI [54] was 6.3 µM. It also gave a TGI [55] of 28.9 µM and a TGI [56] of 4.17 µM.
`CCOC(=O)NC(=S)NC(C)c1ccccc1` (stereo not drawn) was tested, and the TGI [1] was over 100 µM, the TGI [57] was over 100 µM and the TGI [58] was over 100 µM. For the same compound, the TGI [2] was over 100 µM, the TGI [3] was over 100 µM and the TGI [4] was over 100 µM. The TGI [59] was over 100 µM, the TGI [6] was over 100 µM and the TGI [7] was over 100 µM. It also gave a TGI [8] of over 100 µM, a TGI [9] of over 100 µM and a TGI [10] of over 100 µM. The TGI [12] was over 100 µM, the TGI [13] was over 100 µM and the TGI [14] was over 100 µM. It also gave a TGI [15] of over 100 µM, a TGI [16] of over 100 µM and a TGI [17] of over 100 µM. The TGI [18] was over 100 µM, the TGI [19] was over 100 µM and the TGI [22] was over 100 µM. The TGI [23] was over 100 µM, the TGI [24] was over 100 µM and the TGI [25] was over 100 µM. The TGI [26] was over 100 µM, the TGI [27] was over 100 µM and the TGI [28] was over 100 µM. For the same compound, the TGI [29] was over 100 µM, the TGI [31] was over 100 µM and the TGI [32] was over 100 µM. The TGI [33] was over 100 µM, the TGI [34] was over 100 µM and the TGI [35] was over 100 µM. The TGI [37] was over 100 µM, the TGI [38] was over 100 µM and the TGI [39] was over 100 µM. The TGI [40] was over 100 µM, the TGI [41] was over 100 µM and the TGI [42] was over 100 µM. It also gave a TGI [43] of over 100 µM, a TGI [44] of over 100 µM and a TGI [45] of over 100 µM. It also gave a TGI [46] of over 100 µM, a TGI [47] of over 100 µM and a TGI [48] of over 100 µM. The TGI [49] was over 100 µM, the TGI [50] was over 100 µM and the TGI [52] was over 100 µM. It also gave a TGI [53] of over 100 µM, a TGI [54] of over 100 µM and a TGI [55] of over 100 µM. It also gave a TGI [56] of over 100 µM.
